{"source": "patent US20240101540A1", "about": "“TARGETED PROTEIN DEGRADATION OF PARP14 FOR USE IN THERAPY” (Ribon Therapeutics, Inc., priority 2022, published 2024)", "key": {"[1]": {"molecular_target": "T1, catalytic domain of human PARP14 (residues 1611 to 1801) with NanoLuc tag (Homo sapiens, UniProt Q460N5)", "T1 construct": "expressed in transfected cells; host or cells: HEK-293T cells (ATCC), pcDNA3.1(-) vector", "T1 sequence (Q460N5 1611-1801)": "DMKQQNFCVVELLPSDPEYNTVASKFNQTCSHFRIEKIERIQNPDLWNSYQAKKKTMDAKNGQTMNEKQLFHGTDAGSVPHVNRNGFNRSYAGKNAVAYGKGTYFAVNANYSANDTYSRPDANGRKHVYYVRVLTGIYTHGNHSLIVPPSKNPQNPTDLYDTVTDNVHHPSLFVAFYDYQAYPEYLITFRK", "test": "NanoLuc assay for the degradation of PARP14 (NanoLuc-tagged PARP14 overexpressed in HEK-293T cells, 2 hours)", "assay_type": "cell-based", "details": "Assay A (Example A): NanoLuc-tagged PARP14 degradation in HEK-293T cells, read-out: DC50", "experimental": "The insert also contained a NanoLuc tag on the N terminus of the PARP14 protein.\nDegradation of PARP14 protein was assessed using measurement of the NanoLuc tag as proxy for the PARP14 protein. […] Plasmid DNA was diluted in empty vector DNA then added to 1.163 mL of phenol red free OptiMEM (Thermo Fisher). Plasmid DNA concentrations used in each assay described in Table 1. The plasmid DNA was mixed with 78.5 μL of Fugene HD (Promega) and allowed to incubate 5 minutes.\nThe transfection was incubated for 24 hrs at 37 degrees in an incubator supplemented with 5% CO2. The cells were then trypsinized and brought up in phenol red free OptiMEM media. […] 40 nL of a dose response curve diluted in DMSO of each test compound was added to the cell plate using a Mosquito (TTP Labtech) and the plate was incubated at 37° C. for 2 hours. Assay plate was brought to room temperature then 20 μL per well of NanoGlo (Promega) was added to the plate. Luminescence was measured on an Envision (Perkin Elmer).\nThe average DMSO was calculated from 32 wells containing 0.1% DMSO only in columns 12 and 24 of the assay plate. The % of DMSO values were calculated as described below: […]\nThe % of DMSO values were plotted as a function of compound concentration and the following 4-parameter fit was applied to derive the DC50 values:\nwhere top, bottom, and Hill Coefficient are allowed to float. Y is the % of DMSO and X is the compound concentration\nDC50 data for the Example compounds is provided below in Table 2 (“+” is <0.1 μM; “++” is ≥0.1 μM and <1 μM; and “+++” is ≥1 μM)."}, "HiBiT tagged PARP14": {"molecular_target": "T2, HiBiT tagged PARP14 (Homo sapiens, UniProt Q460N5)", "T2 construct": "engineered to contain a HiBiT tag on both alleles of the PARP14 gene; endogenous in cells; host or cells: Jurkat cells stably transfected with LgBiT (Promega), PARP14 locus edited by CRISPR/Cas9", "T2 sequence (Q460N5 whole entry)": "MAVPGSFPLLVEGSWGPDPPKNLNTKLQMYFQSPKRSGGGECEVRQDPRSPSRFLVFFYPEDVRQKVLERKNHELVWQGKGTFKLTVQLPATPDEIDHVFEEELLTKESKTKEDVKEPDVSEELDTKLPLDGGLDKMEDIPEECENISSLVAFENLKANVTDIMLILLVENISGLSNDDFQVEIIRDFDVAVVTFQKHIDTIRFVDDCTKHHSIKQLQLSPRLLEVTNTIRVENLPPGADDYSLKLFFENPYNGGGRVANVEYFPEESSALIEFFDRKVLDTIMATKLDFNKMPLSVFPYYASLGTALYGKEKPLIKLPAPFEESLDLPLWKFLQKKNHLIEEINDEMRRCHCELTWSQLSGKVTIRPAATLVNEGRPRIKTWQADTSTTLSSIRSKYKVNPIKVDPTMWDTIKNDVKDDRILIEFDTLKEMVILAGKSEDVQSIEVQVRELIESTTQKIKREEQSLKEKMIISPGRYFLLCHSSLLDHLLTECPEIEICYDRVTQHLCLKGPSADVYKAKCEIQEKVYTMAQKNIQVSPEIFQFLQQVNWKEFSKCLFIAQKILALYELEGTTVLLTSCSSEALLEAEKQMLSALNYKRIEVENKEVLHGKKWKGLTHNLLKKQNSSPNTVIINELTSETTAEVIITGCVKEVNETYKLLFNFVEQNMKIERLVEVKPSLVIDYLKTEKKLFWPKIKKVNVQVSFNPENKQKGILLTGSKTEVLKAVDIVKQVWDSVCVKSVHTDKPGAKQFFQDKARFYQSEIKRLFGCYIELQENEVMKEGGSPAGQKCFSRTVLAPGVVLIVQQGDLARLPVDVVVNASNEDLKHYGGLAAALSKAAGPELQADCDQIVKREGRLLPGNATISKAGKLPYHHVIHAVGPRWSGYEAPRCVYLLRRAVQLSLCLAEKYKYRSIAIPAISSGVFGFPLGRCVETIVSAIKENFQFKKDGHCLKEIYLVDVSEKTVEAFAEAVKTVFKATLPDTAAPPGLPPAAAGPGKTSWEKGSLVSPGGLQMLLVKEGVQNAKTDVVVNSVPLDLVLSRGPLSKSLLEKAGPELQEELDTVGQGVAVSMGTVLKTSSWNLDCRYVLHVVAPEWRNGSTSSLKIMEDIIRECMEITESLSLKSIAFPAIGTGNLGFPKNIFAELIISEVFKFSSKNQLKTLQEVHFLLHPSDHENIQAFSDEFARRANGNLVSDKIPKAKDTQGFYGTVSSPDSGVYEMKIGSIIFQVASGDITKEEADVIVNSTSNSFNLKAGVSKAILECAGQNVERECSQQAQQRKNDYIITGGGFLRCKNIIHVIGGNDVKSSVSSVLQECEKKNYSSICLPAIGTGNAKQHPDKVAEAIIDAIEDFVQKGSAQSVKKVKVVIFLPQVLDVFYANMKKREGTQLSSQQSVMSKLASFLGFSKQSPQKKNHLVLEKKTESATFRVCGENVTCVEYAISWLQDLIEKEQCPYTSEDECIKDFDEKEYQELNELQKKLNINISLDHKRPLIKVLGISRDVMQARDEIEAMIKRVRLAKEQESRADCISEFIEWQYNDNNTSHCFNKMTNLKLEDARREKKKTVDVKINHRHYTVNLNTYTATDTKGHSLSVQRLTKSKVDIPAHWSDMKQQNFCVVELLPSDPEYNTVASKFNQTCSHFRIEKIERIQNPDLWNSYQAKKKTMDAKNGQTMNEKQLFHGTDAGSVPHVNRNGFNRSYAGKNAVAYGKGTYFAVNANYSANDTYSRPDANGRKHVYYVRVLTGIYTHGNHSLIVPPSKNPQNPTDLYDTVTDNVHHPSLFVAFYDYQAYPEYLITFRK", "test": "HiBiT assay for the degradation of PARP14 (HiBiT tagged PARP14 in LgBiT expressing Jurkat cells, 2 or 24 hours)", "assay_type": "cell-based", "details": "Assay B (Example B): HiBiT tagged PARP14 degradation in LgBiT expressing Jurkat cells, read-out: DC50", "outline": "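Luminescence from HiBiT–LgBiT complementation served as proxy for endogenous PARP14 level in edited LgBiT Jurkat cells (5,000/well). After 2 or 24 h compound exposure at 37 °C, signal read with Live Cell Substrate, expressed as % of 0.1% DMSO control, and fitted (4-parameter, free Hill) for DC50.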"}}, "note": "Where a name gives a salt, the structure may show the parent alone."}
{"compound": "O=C1CC[C@H](Nc2ccc(N3CCN(CCN4CCC(COc5cc(F)c6c(=O)[nH]c(CSC7CCOCC7)nc6c5)CC4)CC3)cc2)C(=O)N1", "note": "(single isomer, unassigned) [Example 48a]", "values": [{"measurement": "DC50", "setting": "[1]", "value": "< 100", "unit": "nM"}]}
{"compound": "O=C1CC[C@@H](Nc2ccc(N3CCN(CCN4CCC(COc5cc(F)c6c(=O)[nH]c(CSC7CCOCC7)nc6c5)CC4)CC3)cc2)C(=O)N1", "note": "(single isomer, unassigned) [Example 48b]", "values": [{"measurement": "DC50", "setting": "[1]", "value": "< 100", "unit": "nM"}]}
{"compound": "O=C1CCC(N2C(=O)c3cccc(OC4CC(CN5CCC(COc6cc(F)c7c(=O)[nH]c(CSC8CCOCC8)nc7c6)CC5)C4)c3C2=O)C(=O)N1", "note": "(single isomer, unassigned) [Example 80a, 2-(2,6-dioxopiperidin-3-yl)-4-((1r,3r)-3-((4-(((5-fluoro-4-oxo-2-(((tetrahydro-2H-pyran-4-yl)thio)methyl)-3,4-dihydroquinazolin-7-yl)oxy)methyl)piperidin-1-yl)methyl)cyclobutoxy)isoindoline-1,3-dione]", "values": [{"measurement": "DC50", "setting": "[1]", "value": "< 100", "unit": "nM"}]}
{"compound": "O=C1CCC(N2C(=O)c3cccc(OC4CC(CN5CCC(COc6cc(F)c7c(=O)[nH]c(CSC8CCOCC8)nc7c6)CC5)C4)c3C2=O)C(=O)N1", "note": "(single isomer, unassigned) [Example 80b, 2-(2,6-dioxopiperidin-3-yl)-4-((1s,3s)-3-((4-(((5-fluoro-4-oxo-2-(((tetrahydro-2H-pyran-4-yl)thio)methyl)-3,4-dihydroquinazolin-7-yl)oxy)methyl)piperidin-1-yl)methyl)cyclobutoxy)isoindoline-1,3-dione]", "values": [{"measurement": "DC50", "setting": "[1]", "value": "< 100", "unit": "nM"}]}
{"compound": "O=C(CN1CCC(COc2cc(F)c3c(=O)[nH]c(CSC4CCOCC4)nc3c2)CC1)NCCCCCCNc1cccc2c1C(=O)N(C1CCC(=O)NC1=O)C2=O", "note": "(stereo not drawn) [Example 1, N-(6-((2-(2,6-dioxopiperidin-3-yl)-1,3-dioxoisoindolin-4-yl)amino)hexyl)-2-(4-(((5-fluoro-4-oxo-2-(((tetrahydro-2H-pyran-4-yl)thio)methyl)-3,4-dihydroquinazolin-7-yl)oxy)methyl)piperidin-1-yl)acetamide]", "values": [{"measurement": "DC50", "setting": "[1]", "value": "< 100", "unit": "nM"}]}
{"compound": "O=C(CN1CCC(COc2cc(F)c3c(=O)[nH]c(CSC4CCOCC4)nc3c2)CC1)NCCNc1cccc2c1C(=O)N(C1CCC(=O)NC1=O)C2=O", "note": "(stereo not drawn) [Example 2, N-(2-((2-(2,6-dioxopiperidin-3-yl)-1,3-dioxoisoindolin-4-yl)amino)ethyl)-2-(4-(((5-fluoro-4-oxo-2-(((tetrahydro-2H-pyran-4-yl)thio)methyl)-3,4-dihydroquinazolin-7-yl)oxy)methyl)piperidin-1-yl)acetamide]", "values": [{"measurement": "DC50", "setting": "[1]", "value": "< 100", "unit": "nM"}]}
{"compound": "O=C(CN1CCC(COc2cc(F)c3c(=O)[nH]c(CSC4CCOCC4)nc3c2)CC1)NCCCCCCCCNc1cccc2c1C(=O)N(C1CCC(=O)NC1=O)C2=O", "note": "(stereo not drawn) [Example 3, N-(8-((2-(2,6-dioxopiperidin-3-yl)-1,3-dioxoisoindolin-4-yl)amino)octyl)-2-(4-(((5-fluoro-4-oxo-2-(((tetrahydro-2H-pyran-4-yl)thio)methyl)-3,4-dihydroquinazolin-7-yl)oxy)methyl)piperidin-1-yl)acetamide]", "values": [{"measurement": "DC50", "setting": "[1]", "value": "< 100", "unit": "nM"}]}
{"compound": "O=C1CCC(Nc2ccc(N3CCC(N4CC(N5CCC(COc6cc(F)c7c(=O)[nH]c(CSC8CCOCC8)nc7c6)CC5)C4)CC3)c(C(F)(F)F)c2)C(=O)N1", "note": "(stereo not drawn) [Example 230, 3-((4-(4-(3-(4-(((5-fluoro-4-oxo-2-(((tetrahydro-2H-pyran-4-yl)thio)methyl)-3,4-dihydroquinazolin-7-yl)oxy)methyl)piperidin-1-yl)azetidin-1-yl)piperidin-1-yl)-3-(trifluoromethyl)phenyl)amino)piperidine-2,6-dione]", "values": [{"measurement": "DC50", "setting": "HiBiT tagged PARP14", "value": "< 30", "unit": "nM"}]}
{"compound": "O=C1CCC(Nc2ccc(N3CCC(CN4CCC(N5CCC(COc6cc(F)c7c(=O)[nH]c(CSC8CCOCC8)nc7c6)CC5)CC4)CC3)c(F)c2)C(=O)N1", "note": "(stereo not drawn) [Example 231, 3-((3-fluoro-4-(4-((4-(((5-fluoro-4-oxo-2-(((tetrahydro-2H-pyran-4-yl)thio)methyl)-3,4-dihydroquinazolin-7-yl)oxy)methyl)-[1,4′-bipiperidin]-1′-yl)methyl)piperidin-1-yl)phenyl)amino)piperidine-2,6-dione]", "values": [{"measurement": "DC50", "setting": "HiBiT tagged PARP14", "value": "< 30", "unit": "nM"}]}
{"compound": "O=C1CCC(Nc2ccc(N3CCC(N4CC(CN5CCC(COc6cc(F)c7c(=O)[nH]c(CSC8CCOCC8)nc7c6)CC5)C4)CC3)c(F)c2)C(=O)N1", "note": "(stereo not drawn) [Example 232, 3-((3-fluoro-4-(4-(3-((4-(((5-fluoro-4-oxo-2-(((tetrahydro-2H-pyran-4-yl)thio)methyl)-3,4-dihydroquinazolin-7-yl)oxy)methyl)piperidin-1-yl)methyl)azetidin-1-yl)piperidin-1-yl)phenyl)amino)piperidine-2,6-dione]", "values": [{"measurement": "DC50", "setting": "HiBiT tagged PARP14", "value": "< 30", "unit": "nM"}]}
{"compound": "O=C1CCC(Nc2ccc(N3CCC(N4CC(N5CCC(COc6ccc7c(=O)[nH]c(CSC8CCOCC8)nc7c6)CC5)C4)CC3)c(F)c2)C(=O)N1", "note": "(stereo not drawn) [Example 233, 3-((3-fluoro-4-(4-(3-(4-(((4-oxo-2-(((tetrahydro-2H-pyran-4-yl)thio)methyl)-3,4-dihydroquinazolin-7-yl)oxy)methyl)piperidin-1-yl)azetidin-1-yl)piperidin-1-yl)phenyl)amino)piperidine-2,6-dione]", "values": [{"measurement": "DC50", "setting": "HiBiT tagged PARP14", "value": "< 30", "unit": "nM"}]}
{"compound": "O=C1CCC(Nc2ccc(N3CCN(CCN4CCC(COc5cc(F)c6c(=O)[nH]c(CSC7CCOCC7)nc6c5)CC4)C(=O)C3)c(F)c2)C(=O)N1", "note": "(stereo not drawn) [Example 234, 3-((3-fluoro-4-(4-(2-(4-(((5-fluoro-4-oxo-2-(((tetrahydro-2H-pyran-4-yl)thio)methyl)-3,4-dihydroquinazolin-7-yl)oxy)methyl)piperidin-1-yl)ethyl)-3-oxopiperazin-1-yl)phenyl)amino)piperidine-2,6-dione]", "values": [{"measurement": "DC50", "setting": "HiBiT tagged PARP14", "value": "< 30", "unit": "nM"}]}
{"compound": "O=C1CCC(Nc2ccc(N3CCC(N4CC(N5CCC(CCOc6cc(F)c7c(=O)[nH]c(CSC8CCOCC8)nc7c6)CC5)C4)CC3)c(F)c2)C(=O)N1", "note": "(stereo not drawn) [Example 235, 3-((3-fluoro-4-(4-(3-(4-(2-((5-fluoro-4-oxo-2-(((tetrahydro-2H-pyran-4-yl)thio)methyl)-3,4-dihydroquinazolin-7-yl)oxy)ethyl)piperidin-1-yl)azetidin-1-yl)piperidin-1-yl)phenyl)amino)piperidine-2,6-dione]", "values": [{"measurement": "DC50", "setting": "HiBiT tagged PARP14", "value": "< 30", "unit": "nM"}]}
{"compound": "O=C1CCC(Nc2ccc(F)c(N3CCC(N4CC(N5CCC(COc6cc(F)c7c(=O)[nH]c(CSC8CCOCC8)nc7c6)CC5)C4)CC3)c2)C(=O)N1", "note": "(stereo not drawn) [Example 236, 3-((4-fluoro-3-(4-(3-(4-(((5-fluoro-4-oxo-2-(((tetrahydro-2H-pyran-4-yl)thio)methyl)-3,4-dihydroquinazolin-7-yl)oxy)methyl)piperidin-1-yl)azetidin-1-yl)piperidin-1-yl)phenyl)amino)piperidine-2,6-dione]", "values": [{"measurement": "DC50", "setting": "HiBiT tagged PARP14", "value": "< 30", "unit": "nM"}]}
{"compound": "O=C1CCC(Nc2ccc(N3CCC(N4CC(N5CCC(COc6cc(F)c7c(=O)[nH]c(CSC8CCCCC8)nc7c6)CC5)C4)CC3)c(F)c2)C(=O)N1", "note": "(stereo not drawn) [Example 237, 3-({4-[4-(3-{4-[({2-[(cyclohexylsulfanyl)methyl]-5-fluoro-4-oxo-3H-quinazolin-7-yl}oxy)methyl]piperidin-1-yl}azetidin-1-yl)piperidin-1-yl]-3-fluorophenyl}amino)piperidine-2,6-dione formate]", "values": [{"measurement": "DC50", "setting": "HiBiT tagged PARP14", "value": "< 30", "unit": "nM"}]}
